# Test results as given in patent US12630563B2, “Macrocyclic RIP2-kinase inhibitors” (Oncodesign S.A., priority 2020, dated 2026).
# Target: T1, recombinant hRIPK2 protein (kinase domain aa 1-299-His-tagged) (Homo sapiens, UniProt O43353)
# T1 construct: kinase domain aa 1-299-His-tagged; purchased Life Technologies PR7829A
# Assay: RIPK2 AlphaLISA assay (displacement of bead-bound CZC-8004 from hRIPK2)
# Format: binding
# Conditions: recombinant hRIPK2 kinase domain 10 nM, 2 h at 23° C.
# In short: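 His-tagged kinase domain (10 nM, as diluted) was mixed with compound (0.8% DMSO), acceptor beads bearing the probe CZC-8004 and Ni2+ donor beads. After 2 h at 23 °C, AlphaLISA signal was read. Loss of signal reflects displacement of the probe from RIPK2.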
# T1 sequence (O43353 1-299): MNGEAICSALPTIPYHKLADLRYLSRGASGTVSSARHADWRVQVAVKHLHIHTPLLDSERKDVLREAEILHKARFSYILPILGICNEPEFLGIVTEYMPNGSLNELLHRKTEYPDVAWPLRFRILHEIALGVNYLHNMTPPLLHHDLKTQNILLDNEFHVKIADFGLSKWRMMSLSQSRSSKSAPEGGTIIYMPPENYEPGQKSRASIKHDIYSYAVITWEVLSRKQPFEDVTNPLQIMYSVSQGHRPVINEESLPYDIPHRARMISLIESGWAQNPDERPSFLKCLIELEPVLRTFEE
row,Structure (SMILES),IC50 [nM]
1,"CO[C@@H]1C[C@H]2COc3nc4c(cnn4cc3C)-c3cc(CO)cc(c3)NCCN2C1=O [Example 64, (12R,14S)-4-(hydroxymethyl)-12-methoxy-18-methyl-16-oxa-7,10,20,21,24-pentaazapentacyclo[15.5.2.1^2,6.0^1°,^14.0^2°,^23]pentacosa-1(23),2,4,6(25),17(24),18,21-heptaen-11-one]",10 to 100
2,"CCOC(=O)N1CCN2C(=O)[C@H](OC)C[C@H]2COc2ccn3ncc(c3n2)-c2cc(F)cc1c2 [Example 73, Ethyl (12R,14S)-4-fluoro-12-methoxy-11-oxo-16-oxa-7,10,20,21,24-pentaazapentacyclo[15.5.2.1^2,6.0^1°,^14.0^2°,^23]pentacosa-1(23),2,4,6(25),17(24),18,21-heptaene-7-carboxylate]",10 to 100
3,"CO[C@@H]1C[C@H]2COc3ccn4ncc(c4n3)-c3cc(F)cc(c3)N(C(C)=O)CCN2C1=O [Example 74, (12R,14S)-7-acetyl-4-fluoro-12-methoxy-16-oxa-7,10,20,21,24-pentaazapentacyclo[15.5.2.1^2,6.0^1°,^14.0^2°,^23]pentacosa-1(23),2,4,6(25),17(24),18,21-heptaen-11-one]",10 to 100
4,"CO[C@@H]1C[C@H]2COc3ccn4ncc(c4n3)-c3cc(F)cc(c3)N(C)CCN2C1=O [Example 75, (12R,14S)-4-fluoro-12-methoxy-7-methyl-16-oxa-7,10,20,21,24-pentaazapentacyclo[15.5.2.1^2,6.0^1°,^14.0^2°,^23]pentacosa-1(23),2(25),3,5,17(24),18,21-heptaen-11-one]",10 to 100
5,"O=C1[C@H](OC2CC2)C[C@H]2COc3ccn4ncc(c4n3)-c3cc(cc(-n4cccn4)c3)NCCN12 [Example 81, (12R,14S)-12-cyclopropoxy-4-(1H-pyrazol-1-yl)-16-oxa-7,10,20,21,24-pentaazapentacyclo[15.5.2. 1^2,6.0^10,^14.0^20,^23]pentacosa-1(23),2(25),3,5,17(24),18,21-heptaen-11-one]",< 10
6,"O=C1[C@H](O)C[C@H]2COc3ccn4ncc(c4n3)-c3cc(cc(-n4cccn4)c3)NCCN12 [Example 82, (12R,14S)-12-hydroxy-4-(1H-pyrazol-1-yl)-16-oxa-7,10,20,21,24-pentaazapentacyclo[15.5.2. 1^2,6.0^10,^14.0^20,^23]pentacosa-1(23),2(25),3,5,17(24),18,21-heptaen-11-one]",< 10
7,"CO[C@@H]1C[C@H]2COc3ccn4ncc(c4n3)-c3cc(cc(-n4nc(C)cc4C)c3)NCCN2C1=O [Example 83, (12R,14S)-4-(3,5-dimethyl-1H-pyrazol-1-yl)-12-methoxy-16-oxa-7,10,20,21,24-pentaazapentacyclo[15.5.2.1^2,6.0^1°,^14.0^2°,^23]pentacosa-1(23),2(25),3,5,17(24),18,21-heptaen-11-one]",< 10
8,"CO[C@@H]1C[C@H]2COc3ccn4ncc(c4n3)-c3cc(cc(-n4ncc(C)c4C)c3)NCCN2C1=O [Example 84, (12R,14S)-4-(4,5-dimethyl-1H-pyrazol-1-yl)-12-methoxy-16-oxa-7,10,20,21,24-pentaazapentacyclo[15.5.2.1^2,6.0^1°,^14.0^2°,^23]pentacosa-1(23),2(25),3,5,17(24),18,21-heptaen-11-one]",< 10
9,"CCO[C@@H]1C[C@@H]2COc3ccn4ncc(c4n3)-c3cc(cc(OC)c3)NCCN2C1=O [Example 87, (12R,14R)-12-ethoxy-4-methoxy-16-oxa-7,10,20,21,24-pentaazapentacyclo[15.5.2.1^2,6.0^10,^14.0^20,^23]pentacosa-1(23),2,4,6(25),17(24),18,21-heptaen-11-one]",100 to 11000
10,"CC#Cc1cc2cc(c1)-c1cnn3ccc(nc13)OC[C@@H]1C[C@@H](OC)C(=O)N1CCN2 [Example 88, (12R,14S)-12-methoxy-4-(prop-1-yn-1-yl)-16-oxa-7,10,20,21,24-pentaazapentacyclo[15.5.2.1^2,6.0^1°,^14.0^2°,^23]pentacosa-1(23),2,4,6(25),17(24),18,21-heptaen-11-one]",< 10
11,"COc1cc2cc(c1)-c1cnn3ccc(nc13)OC[C@@H]1C[C@@H](OC)C(=O)N1CC(C)N2 (stereo partly drawn) [Example 89, (12R,14S)-4,12-dimethoxy-8-methyl-16-oxa-7,10,20,21,24-pentaazapentacyclo[15.5.2.1^2,6.0^1°,^14.0^2°,^23]pentacosa-1(23),2,4,6(25),17(24),18,21-heptaen-11-one]",< 10
12,"COc1cc2cc(c1)-c1cnn3ccc(nc13)OC[C@@H]1C[C@@H](O)C(=O)N1CCN2 [Example 90, (12R,14S)-12-hydroxy-4-methoxy-16-oxa-7,10,20,21,24-pentaazapentacyclo[15.5.2.1^2,6.0^1°,^14.0^2°,^23]pentacosa-1 (23),2,4,6(25),17(24),18,21-heptaen-11-one]",< 10
13,"O=C1[C@H](OCC2COC2)C[C@H]2COc3ccn4ncc(c4n3)-c3cc(F)cc(c3)NCCN12 [Example 91, (12R,14S)-4-fluoro-12-(oxetan-3-ylmethoxy)-16-oxa-7,10,20,21,24-pentaazapentacyclo[15.5.2.1^2,6.0^1°,^14.0^2°,^23]pentacosa-1(23),2(25),3,5,17(24),18,21-heptaen-11-one]",< 10
14,"[2H]C([2H])([2H])Oc1cn2ncc3c2nc1OC[C@@H]1C[C@@H](OC)C(=O)N1CCNc1cc(F)cc-3c1 [Example 92, (12R,14S)-4-fluoro-18-(^2H3)methoxy-12-methoxy-16-oxa-7,10,20,21,24-pentaazapentacyclo[15.5.2.1^2,6.0^1°,^14.0^2°,^23]pentacosa-1(23),2(25),3,5,17(24),18,21-heptaen-11-one]",< 10
15,"CO[C@@H]1C[C@H]2COc3ccn4ncc(c4n3)-c3cc(cc(-c4cnn(CCO)c4)c3)NCCN2C1=O [Example 93, (12R,14S)-4-[1-(2-hydroxyethyl)-1H-pyrazol-4-yl]-12-methoxy-16-oxa-7,10,20,21,24-pentaazapentacyclo[15.5.2.1^2,6.0^1°,^14.0^2°,^23]pentacosa-1(23),2,4,6(25),17(24),18,21-heptaen-11-one]",100 to 11000
16,"[2H]C([2H])([2H])Oc1cc2cc(c1)-c1cnn3ccc(nc13)OC[C@@H]1C[C@@H](OCC)C(=O)N1CCN2 [Example 94, (12R,14S)-12-ethoxy-4-(^2H3)methoxy-16-oxa-7,10,20,21,24-pentaazapentacyclo[15.5.2.1^2,6.0^10,^14.0^20,^23]pentacosa-1(23),2(25),3,5,17(24),18,21-heptaen-11-one]",< 10
17,"CCO[C@@H]1C[C@H]2COc3ccn4ncc(c4n3)-c3cc(O)cc(c3)NCCN2C1=O [Example 96, (12R,14S)-12-ethoxy-4-hydroxy-16-oxa-7,10,20,21,24-pentaazapentacyclo[15.5.2.1^2,6.0^1°,^14.0^2°,^23]pentacosa-1(23),2(25),3,5,17(24),18,21-heptaen-11-one]",< 10
18,"COCCO[C@@H]1C[C@H]2COc3ccn4ncc(c4n3)-c3cc(O)cc(c3)NCCN2C1=O [Example 97, (12R,14S)-4-hydroxy-12-(2-methoxyethoxy)-16-oxa-7,10,20,21,24-pentaazapentacyclo[15.5.2. 1^2,6.0^10,^14.0^20,^23]pentacosa-1(23),2,4,6(25),17(24),18,21-heptaen-11-one]",< 10

# The next lines start with the values.
row,IC50 [nM],Structure (SMILES)
1,< 10,CO[C@@H]1C[C@H]2COc3nc4c(cnn4cc3-c3cnn(C)c3C)-c3cc(F)cc(c3)NCCN2C1=O [Example 68]
2,< 10,CO[C@@H]1C[C@H]2COc3nc4c(cnn4cc3-c3cn(C)nc3C)-c3cc(F)cc(c3)NCCN2C1=O [Example 69]
3,< 10,"C#Cc1cc2cc(c1)-c1cnn3ccc(nc13)OC[C@@H]1C[C@@H](OC)C(=O)N1CCN2 [Example 70, (12R,14S)-4-ethynyl-12-methoxy-16-oxa-7,10,20,21,24-pentaazapentacyclo[15.5.2.1^2,6.0^1°,^14.0^2°,^23]pentacosa-1(23),2(25),3,5,17(24),18,21-heptaen-11-one]"
4,< 10,C#Cc1cc2cc(c1)-c1cnn3cc(C)c(nc13)OC[C@@H]1C[C@@H](OC)C(=O)N1CCN2 [Example 71]
5,< 10,"C#Cc1cc2cc(c1)-c1cnn3ccc(nc13)OC[C@@H]1C[C@@H](OCC)C(=O)N1CCN2 [Example 72, (12R,14S)-12-ethoxy-4-ethynyl-16-oxa-7,10,20,21,24-pentaazapentacyclo[15.5. 2.1^2,6.0^10,^14.0^20,^23]pentacosa-21-heptaen-11-one]"
6,< 10,"CO[C@@H]1C[C@H]2COc3ccn4ncc(c4n3)-c3cc(cc(-c4ncon4)c3)NCCN2C1=O [Example 76, (12R,14S)-12-methoxy-4-(1,2,4-oxadiazol-3-yl)-16-oxa-7,10,20,21,24-pentaazapentacyclo[15.5.2.1^2,6.0^1°,^14.0^2°,^23]pentacosa-1(23),2(25),3,5,17(24),18,21-heptaen-11-one]"
7,< 10,"COCCc1cn2ncc3c2nc1OC[C@@H]1C[C@@H](OC)C(=O)N1CCNc1cc(F)cc-3c1 [Example 77, (12R,14S)-4-fluoro-12-methoxy-18-(2-methoxyethyl)-16-oxa-7,10,20,21,24-pentaazapentacyclo[15.5.2.1^2,6.0^1°,^14.0^2°,^23]pentacosa-1(23),2(25),3,5,17(24),18,21-heptaen-11-one]"
8,< 10,"COCCc1cn2ncc3c2nc1OC[C@@H]1C[C@@H](OC)C(=O)N1CCNc1cc-3cc(-n2cccn2)c1 [Example 78, (12R,14S)-12-methoxy-18-(2-methoxyethyl)-4-(1H-pyrazol-1-yl)-16-oxa-7,10,20,21,24-pentaazapentacyclo[15.5. 2.1^2,6.0^10,^14.0^20,^23]pentacosa-1(23),2(25),3,5,17(24),18, 21-heptaen-11-one]"
9,< 10,"O=C1[C@H](OC2CC2)C[C@H]2COc3ccn4ncc(c4n3)-c3cc(F)cc(c3)NCCN12 [Example 80, (12R,14S)-12-cyclopropoxy-4-fluoro-16-oxa-7,10,20,21,24-pentaazapentacyclo[15.5.2.1^2,6.0^1°,^14.0^2°,^23]pentacosa-1(23),2(25),3,5,17(24),18,21-heptaen-11-one]"
